# From ChEMBL document CHEMBL4261494, “Design, synthesis and biological evaluation of novel Schiff base-bridged tetrahydroprotoberberine triazoles as a new type of potential antimicrobial agents” (Medchemcomm, 2017)
# Activity calls are given as the source filed them. The rule behind the calls is not given here.
# What was measured:
# [1] = system: Staphylococcus aureus; assay type: functional; conditions: ATCC 25923, 24 h
# [2] = system: Staphylococcus aureus; assay type: functional; conditions: N315, 24 h
# [3] = system: Bacillus spizizenii; assay type: functional; conditions: ATCC 6633, 24 h
# [4] = system: Micrococcus luteus; assay type: functional; conditions: ATCC 4698, 24 h
# [5] = system: Escherichia coli; assay type: functional; conditions: JM109, 24 h
# [6] = system: Escherichia coli; assay type: functional; conditions: DH52, 24 h
# [7] = system: Shigella dysenteriae; assay type: functional; conditions: 24 h
# [8] = system: Pseudomonas aeruginosa; assay type: functional; conditions: ATCC 27853, 24 h
# [9] = system: Proteus vulgaris; assay type: functional; conditions: ATCC 13315, 24 h
# [10] = Aqueous solubility of the compound in pH 7.4 phosphate buffer at 1 mg after 3 hrs by UV absorption analysis; assay type: physicochemical
# [11] = system: Salmonella typhi; assay: microbe, parasite or virus in culture; conditions: Salmonella enterica, 24 h
# [12] = system: Escherichia coli; assay: Potency index, ratio of chloromycin MIC to test compound MIC for Escherichia coli JM109; assay type: functional
# [13] = system: Salmonella typhi; assay: Potency index, ratio of chloromycin MIC to test compound MIC for Bacillus typhi; assay type: functional, Salmonella enterica subsp. enterica serovar Typhi
# [14] = system: Candida albicans; assay type: functional
# [15] = system: Kregervanrija fluxuum; assay type: functional
# [16] = system: Cyberlindnera jadinii; assay type: functional
# [17] = system: Aspergillus flavus; assay type: functional
# [18] = system: Saccharomyces cerevisiae; assay type: functional; conditions: 24 h
# [19] = system: DNA; assay: Induction of Escherichia coli supercoiled pUC19 DNA cleavage at 0.0125 mM after 16 hrs in absence of Zn2+ by ethidium bromide staining-based agarose gel electrophoresis method; assay type: nucleic-acid assay
Structure (SMILES),MIC [1],MIC [2],MIC [3],MIC [4],MIC [5],MIC [6],MIC [7],MIC [8],MIC [9],solubility at 3 h [10],MIC [11],other results
CCCCOc1c(OC)cc(/C=N/n2cnnc2)c2c1CN1CCc3cc4c(cc3C1C2)OCO4 (centres undefined),16 µg/mL,8 µg/mL,16 µg/mL,1 µg/mL,16 µg/mL,32 µg/mL,8 µg/mL,16 µg/mL,16 µg/mL,121 µg/mL,16 µg/mL,–
CCCCCCCCCCCCOc1c(OC)cc(/C=N/n2cnnc2)c2c1CN1CCc3cc4c(cc3C1C2)OCO4 (centres undefined),256 µg/mL,512 µg/mL,256 µg/mL,512 µg/mL,512 µg/mL,256 µg/mL,512 µg/mL,512 µg/mL,256 µg/mL,97 µg/mL,256 µg/mL,–
COc1cc(/C=N/n2cnnc2)c2c(c1OCc1ccccc1Cl)CN1CCc3cc4c(cc3C1C2)OCO4 (centres undefined),16 µg/mL,16 µg/mL,32 µg/mL,256 µg/mL,4 µg/mL,64 µg/mL,16 µg/mL,2 µg/mL,512 µg/mL,–,1 µg/mL,–
CCCCCCCCCCOc1c(OC)cc(/C=N/n2cnnc2)c2c1CN1CCc3cc4c(cc3C1C2)OCO4 (centres undefined),32 µg/mL,32 µg/mL,32 µg/mL,64 µg/mL,128 µg/mL,64 µg/mL,128 µg/mL,128 µg/mL,64 µg/mL,–,16 µg/mL,–
CCCCCCCCOc1c(OC)cc(/C=N/n2cnnc2)c2c1CN1CCc3cc4c(cc3C1C2)OCO4 (centres undefined),8 µg/mL,16 µg/mL,16 µg/mL,16 µg/mL,32 µg/mL,16 µg/mL,64 µg/mL,512 µg/mL,16 µg/mL,–,16 µg/mL,–
CCCCCCOc1c(OC)cc(/C=N/n2cnnc2)c2c1CN1CCc3cc4c(cc3C1C2)OCO4 (centres undefined),8 µg/mL,32 µg/mL,8 µg/mL,16 µg/mL,4 µg/mL,32 µg/mL,8 µg/mL,32 µg/mL,16 µg/mL,442 µg/mL,2 µg/mL,"Ratio [12]: 8; Ratio [13]: 16; MIC ([14]; ATCC 10231, 24 h): 2 to 32 µg/mL; MIC ([15]; ATCC 9888, 24 h): 2 to 32 µg/mL; MIC ([16]; Williopsis jadinii, ATCC 9950, 24 h): 2 to 32 µg/mL; MIC ([17]; ATCC 204304, 24 h): 2 to 32 µg/mL; MIC [18]: 2 to 32 µg/mL"
COc1ccc2cc3[n+](cc2c1OC)CCc1cc2c(cc1-3)OCO2 [BERBERINE],512 µg/mL,128 µg/mL,> 512 µg/mL,> 512 µg/mL,–,> 512 µg/mL,256 µg/mL,256 µg/mL,–,85 µg/mL,–,Activity [19]: inactive
COc1cc(/C=N/n2cnnc2)c2c(c1OCc1ccc([N+](=O)[O-])cc1)CN1CCc3cc4c(cc3C1C2)OCO4 (centres undefined),512 µg/mL,16 µg/mL,256 µg/mL,2 µg/mL,128 µg/mL,512 µg/mL,64 µg/mL,64 µg/mL,512 µg/mL,–,4 µg/mL,–
COc1cc(/C=N/n2cnnc2)c2c(c1O)CN1CCc3cc4c(cc3C1C2)OCO4 (centres undefined),64 µg/mL,16 µg/mL,512 µg/mL,1 µg/mL,128 µg/mL,128 µg/mL,256 µg/mL,128 µg/mL,64 µg/mL,392 µg/mL,128 µg/mL,Activity ([14]; ATCC 10231): inactive; Activity ([15]; ATCC 9888): inactive; Activity ([16]; ATCC 9950): inactive; Activity ([17]; ATCC 204304): inactive
